From PubChem BioAssay (NCI)
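Five compound concentrations were applied to cells in 96-well plates for 48 hours; endpoints were derived by simple linear interpolation of the resulting dose-response curve. TGI marks complete inhibition of growth.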

Tests used:
Test in all cases: NCI tumour cell line growth inhibition, 48 h
[1] = system: SF-295 CNS
[2] = system: A498 renal
[3] = system: HOP-92 NSCLC
[4] = system: SF-268 CNS
[5] = system: NCI-H23 lung
[6] = system: DMS 273 small cell lung
[7] = system: MOLT-4 leukemia
[8] = system: M19-MEL melanoma
[9] = system: NCI-H460 lung
[10] = system: NCI-H522 lung
[11] = system: SNB-78 CNS
[12] = system: M14 melanoma
[13] = system: HOP-62 NSCLC
[14] = system: UACC-257 melanoma
[15] = system: HCT-116 colon
[16] = system: U251 CNS
[17] = system: RXF 393 renal
[18] = system: DMS 114 small cell lung
[19] = system: CCRF-CEM leukemia
[20] = system: KM20L2 colon
[21] = system: SR leukemia
[22] = system: OVCAR-5 ovarian
[23] = system: ACHN renal
[24] = system: SK-OV-3 ovarian
[25] = system: EKVX NSCLC
[26] = system: NCI-H226 lung
[27] = system: IGROV1 ovarian
[28] = system: TK-10 renal
[29] = system: HL-60(TB) leukemia
[30] = system: UACC-62 melanoma
[31] = system: SNB-19 CNS
[32] = system: HT29 colon
[33] = system: KM12 colon
[34] = system: OVCAR-8 ovarian
[35] = system: UO-31 renal
[36] = system: SK-MEL-28 melanoma
[37] = system: MALME-3M melanoma
[38] = system: SK-MEL-2 melanoma
[39] = system: 786-0 renal
[40] = system: RPMI-8226 leukemia
[41] = system: COLO 205 colon
[42] = system: SW-620 colon
[43] = system: LOX IMVI melanoma
[44] = system: A549 NSCLC
[45] = system: SNB-75 CNS
[46] = system: OVCAR-3 ovarian
[47] = system: HCT-15 colon
[48] = system: OVCAR-4 ovarian
[49] = system: DLD-1 colon
[50] = system: LXFL 529 NSCLC
[51] = system: CAKI-1 renal
[52] = system: HCC-2998 colon
[53] = system: HOP-18 NSCLC
[54] = system: SN12C renal
[55] = system: K-562 leukemia
[56] = system: SK-MEL-5 melanoma

For NC(CCCC(N)P(=O)(O)O)C(=O)O (centres undefined), the TGI [1] was greater than 100 µM, the TGI [2] was greater than 100 µM and the TGI [3] was greater than 100 µM. The TGI [4] was greater than 100 µM, the TGI [5] was greater than 100 µM and the TGI [6] was greater than 100 µM. For the same compound, the TGI [7] was greater than 100 µM, the TGI [8] was greater than 100 µM and the TGI [9] was greater than 100 µM. The TGI [10] was greater than 100 µM, the TGI [11] was greater than 100 µM and the TGI [12] was greater than 100 µM. For the same compound, the TGI [13] was greater than 100 µM, the TGI [14] was greater than 100 µM and the TGI [15] was greater than 100 µM. For the same compound, the TGI [16] was greater than 100 µM, the TGI [17] was greater than 100 µM and the TGI [18] was greater than 100 µM. For the same compound, the TGI [19] was greater than 100 µM, the TGI [20] was greater than 100 µM and the TGI [21] was greater than 100 µM. The TGI [22] was greater than 100 µM, the TGI [23] was greater than 100 µM and the TGI [24] was greater than 100 µM. For the same compound, the TGI [25] was greater than 100 µM, the TGI [26] was greater than 100 µM and the TGI [27] was greater than 100 µM. It also gave a TGI [28] greater than 100 µM, a TGI [29] greater than 100 µM and a TGI [30] greater than 100 µM. For the same compound, the TGI [31] was greater than 100 µM, the TGI [32] was greater than 100 µM and the TGI [33] was greater than 100 µM. It also gave a TGI [34] greater than 100 µM, a TGI [35] greater than 100 µM and a TGI [36] greater than 100 µM.
Compound COC1C(OC(=O)c2ccc(C)[nH]2)C(O)C(Oc2ccc3c(O)c(NC(=O)c4c[nH]c(C(=O)Nc5c(O)c6ccc(OC7OC(C)(C)C(OC)C(OC(=O)c8ccc(C)[nH]8)C7O)c(C)c6oc5=O)c4C)c(=O)oc3c2C)OC1(C)C (centres undefined) has a TGI [1] greater than 100 µM, a TGI [2] of 4.8 µM and a TGI [37] of 5.02 µM. It also gave a TGI [4] of 7.44 µM, a TGI [5] of 3.84 µM and a TGI [6] of 12.2 µM. The TGI [7] was 8.47 µM, the TGI [38] was 4.42 µM and the TGI [39] was 5.42 µM. The TGI [40] was 4.83 µM, the TGI [41] was 4.38 µM and the TGI [9] was 6.62 µM. It also gave a TGI [42] of 45.9 µM, a TGI [11] of 7.37 µM and a TGI [43] of 9.4 µM. It also gave a TGI [14] of 33.5 µM, a TGI [44] of 61.3 µM and a TGI [16] of 2.89 µM. It also gave a TGI [17] of 2.23 µM, a TGI [45] of 4.85 µM and a TGI [18] of 6.75 µM. The TGI [46] was 41.1 µM, the TGI [47] was 7.06 µM and the TGI [19] was 10.6 µM. The TGI [48] was 6.82 µM, the TGI [20] was 15.6 µM and the TGI [49] was 6.08 µM. For the same compound, the TGI [22] was 9.96 µM, the TGI [23] was 9.43 µM and the TGI [50] was 8.03 µM. The TGI [51] was 6.08 µM, the TGI [24] was 4.58 µM and the TGI [25] was 19.2 µM. The TGI [52] was 7.26 µM, the TGI [53] was 3.37 µM and the TGI [54] was 7.16 µM. It also gave a TGI [26] of 3.84 µM, a TGI [55] greater than 100 µM and a TGI [27] of 3.62 µM. The TGI [28] was 37.3 µM, the TGI [30] was 2.37 µM and the TGI [31] was 6.1 µM. For the same compound, the TGI [32] was 16.1 µM, the TGI [33] was 8.89 µM and the TGI [34] was greater than 100 µM. It also gave a TGI [56] of 6.51 µM, a TGI [35] of 2.94 µM and a TGI [36] of 2.25 µM.
